Reference: patent US9815883B2, “Inhibiting peptides derived from TREM-like transcript 1 (TLT-1) and uses thereof” (Institut National de la Sante et de la Recherche Medicale …, priority 2010, dated 2017)

Key:
TREM-1 = experiment: ROS production by neutrophils (DCFDA, flow cytometry); format: cell-based, human; details: peptide 30 μg/mL
Procedure: (D) ROS production: Flow cytometric quantification (DCFDA reduction) of neutrophils ROS production after 2 hours stimulation.
(§1) The quantitative determination of neutrophil phagocytosis and oxidative burst was performed by flow cytometry using the Phagotest and the Bursttest (Orpegen Pharma, Heidelberg, Germany) following the manufacturers' recommendations. A FITC-labelled opsonized E. coli was used to determine the general phagocytic activity (ingestion of one or more bacteria per cell) and the individual cellular phagocytic activity (number of bacteria per cell). For evaluation of oxidative burst activity, unlabeled opsonized E. coli, fMLP, PMA LPS and activated- or non-activated-platelets (30:1) were used as stimulants and DCFDA as a fluoregenic substrate (Invitrogen) accordingly with manufacturers' instructions.

human neutrophils = experiment: Neutrophil phagocytosis and oxidative burst (Phagotest, Bursttest); format: cell-based
Procedure: Data (mean±SD) are representative of 6 different experiments.
as §1

[1] = tested on: Trem-1 silenced human monocytes; experiment: TNF-α production by Trem-1 silenced monocytes; format: cell-based; details: Trem-1 siRNA; LPS/anti-TREM-1 mAb
Procedure: (I) ELISA of TNF-α produced by native or Trem-1 silenced human monocytes.
TREM-1 silencing was performed with Human Monocyte Nucleofector Kit (Amaxa) using siRNA sequences obtained from Qiagen. Isolated monocytes were electroporated with siRNA (without siRNA and with siRNA without electroporation as negative control, and with a GFP-reporter plasmid for positive control) and cultured for 24 hours in Human Monocyte Nucleofector Medium (Amaxa) before stimulation. TREM-1 expression was then assessed by quantitative RT-PCR and flow cytometry 24 hours after transfection. Medium was changed and monocytes were stimulated with LPS, anti-TREM-1 mAb and TLT-1-peptides for 24 hours. Therefore, medium was collected for cytokine measurement.

LQEEDAGEYGCMVDGAR (listed as Homo sapiens) [LR17]
intracellular ROS production (TREM-1; LPS 0.1 μg/mL with or without αTREM-1): decreased | ROS production by neutrophils (TREM-1; TREM-1 agonist and platelets as inducers, 2 hours): partly prevented | neutrophil oxidative burst mediated by E. coli (human neutrophils): decreased | neutrophils' phagocytic properties (human neutrophils; E. coli): did not alter | PMA- or fMLP-induced oxidative burst (human neutrophils; not shown): no action | TNF-α synthesis by silenced monocytes [1]: did not show any effect
